From US20230285570A1, “THERAPEUTICALLY USEFUL CURE-PRO MOLECULES FOR E3 LIGASE MEDIATED DEGRADATION OF PROTEINS, AND METHODS OF MAKING AND USING THEM” (CORNELL UNIVERSITY, priority 2020, published 2023)
Entries after “also recorded” stand apart in the source; their conditions may differ.

Tests used:
Format in all cases: cell-based
HCT116 cells = assay: MTT toxicity of E3 ligase CURE-PRO monomers, HCT116 cells; conditions: monomer alone, HCT116, 10 nM-30 μM, 24 h
Protocol: CURE-PRO ligands for the E3 ubiquitin ligases were assessed for toxicity by MTT assays as described above. CURE-PRO monomers (10 nM-30 μM) were solubilized in DMSO and added in triplicate to cells (1×10^5 cells/well) seeded in 96 well plates on the previous day. HCT116 (FIG. 105A), MCF7 (FIG. 105B), and HT29 cells (FIG. 105C) were treated with the CURE-PRO monomers for 24 h.

BRD4 [1] = molecular target: T1, BRD4 (Homo sapiens, UniProt O60885); assay: CURE-PRO-mediated BRD4 degradation in MCF7 cells, WES (ProteinSimple); parameters: endogenous in cells
Protocol: WES Simple analysis was performed on WES system (ProteinSimple-Biotechne) according to the manufacturer's instructions. Total protein concentrations of cell lysates were determined by the Pierce BCA kit (Thermo Fisher). 3 μL of 0.3 μg/μL of the protein lysate was loaded onto a 12- to 230-kDa WES assay plate (ProteinSimple) where 300 nL sample was withdrawn through a capillary, subjected to electrophoretic separation of proteins by size, and followed by the simultaneous, HRP-based detection of proteins using the Anti-Rabbit Detection Module (Proteinsimple: #DM-001). The electropherograms were checked then the automatic peak detection was manually corrected if it was required.
MCF7 cells (3×10^6) were treated for 4-24 hours continually (FIG. 72), or treated for 4 h, washed and incubated for a further 4-24 h with the compounds solubilized in DMSO. Compounds were added at 10 μM each. Cells were washed, lysed, and clarified by centrifugation. The total protein concentration was quantified by the BCA method (ThermoFisher Sciences). Standardized protein samples were electrophoresed and imaged as described in the WES Proteinsimple section above. FIG. 69 depicts the CURE-PRO-mediated BRD4 degradation for the BRD-E50 monomer, and VHL ligand, 8305.
MCF7 cells (3×10^6) were treated for 24 hours with the compounds solubilized in DMSO. CURE-PRO monomers were added at 10 μM each and the proteasomal inhibitors at 1 μM. Standardized protein samples were electrophoresed and imaged as described in the WES Proteinsimple section above. FIGS. 73 and 75 depicts the dependence of the proteasome for CURE-PRO-mediated BRD4 degradation.
MCF7 cells (3×10^6) were treated for 24 hours with the compounds solubilized in DMSO. CURE-PRO monomers were added at 10 μM. FIG. 74 depicts the CURE-PRO-mediated BRD4 degradation for the BRD-E50 monomer, and VHL ligand, 8305 combined in a 1:1 ratio after 24 h.

BRD4 [2] = molecular target: T1, BRD4; assay: Summary of BRD4 degradation by CURE-PRO pairs, estimated from Western Blot or WES; parameters: endogenous in cells; conditions: Table 3, aryl-boronic acid BRD4 ligand + 8305
Outline: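 Degradation read-out from immunoblot with ECL, or WES capillary electrophoresis with HRP detection, of RIPA lysates. Cells (Namalwa, Ramos, HeLa, MCF7, HT29 or HCT116) were exposed to DMSO-solubilized compounds for 24 h; a check mark marks 30% to 70% or higher degradation.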

caspase 3/7 [3] = assay: Caspase-Glo 3/7 assay, Molm-13 cells
Protocol: (§1) Caspase-glo® assay (Promega) was conducted following the manufacturer's recommendations. Cells were seeded at a density of 5000 cells/well in a white 96 well plates (Corning, #3917) in a total volume of 100 μl with respective monomers, combinations of BRD ligands together with E3 ligase ligands or vehicle control treatment. After a 24 h incubation, 100 μl of the […] substrate was added per well and luminescence was read on a Spectramax M5 (Molecular Devices).
(§2) Molm-13 (FIG. 76A) or Namalwa (FIG. 76B) cells (5×10^4) were treated for 24 hours with the compounds solubilized in DMSO in white 96 well plates (10 nM-10 μM solubilized in DMSO). FIG. 76 is a bar graph depiction of fold increase of apoptosis assessed via caspase 3/7 activity using the Caspase-Glo assay (Promega) described above.

Molm-13 cells = assay: CellTiter-Glo cell viability, Molm-13 cells
Protocol: CellTiter-Glo® 2.0 Cell Viability Assay (Promega) was carried out following the manufacturer's recommendations. Cells were seeded at a density of 1000 cells/well in a white 96 well plates (Corning, #3917) in a total volume of 100 μl with respective monomers, combinations of BRD ligands together with E3 ligase ligands or vehicle control treatment. After a 72 h incubation, 100 ul of the CellTiter-Glo® substrate was added per well and luminescence was read on a Spectramax M5 (Molecular Devices). Dose-response curves were generated using Graphpad Prism software.
Molm-13 cells (1×10^4) were treated for 24 (FIG. 77A) or 72 (FIG. 77B) hours were treated in white 96 well plates with the compounds (10 nM-10 μM solubilized in DMSO). After indicated times cell viability was assessed using the CellTiter-Glo® Luminescent Cell Viability Assay (Promega) and the signal detected on a SpectraMax M5 (Molecular Devices).

BRD4 [4] = molecular target: T1, BRD4; assay: CURE-PRO-mediated BRD4 degradation in MCF7 cells, Western blot; parameters: endogenous in cells
Protocol: Namalwa, Ramosm HeLa, MCF7, or HT29 HCT116 cells (2.5-3×10^6) were treated for 24 hours with the indicated compounds solubilized in DMSO. The cells were washed in ice-cold PBS and were then lysed in RIPA lysis buffer (150 mM NaCl, 5 mM EDTA, 1% NP-40, 0.5% sodium deoxycholate, 0.1% SDS, 50 mM Tris, pH 8.0.) with Roche protease inhibitor complete cocktail and phosphatase inhibitors (10 mM sodium fluoride, 10 mM sodium pyrophosphate, 1 mM sodium orthovanadate and 20 mM β-glycerophosphate). The total protein concentrations were determined by Bradford Protein Assay (Pierce) and 10-20 μg of protein was loaded onto 4-15% Tris-Glycine gradient gels (Biorad). After standard gel electrophoresis, the separated proteins were transferred to PVDF membrane by wet transfer. The immunoblots were then blocked for 1 hour in 5% skim milk in TBST or 5% BSA in TBST, according to manufacturer's instructions, before an overnight incubation at 4° C. with indicated antibodies and membranes. Membranes were then incubated with the appropriate horseradish peroxidase-conjugated secondary antibodies (1:5,000 dilution) for 1 h at room temperature and the bands were visualized using the Clarity Max Western ECL Substrate (Biorad) and the ChemiDoc Imaging System (Biorad). Signal was detected with ECL Western Blotting Substrate (Pierce) and X-ray film processed with a Konica SRX-101 X-ray film processor or captured by Bio-Rad's Chemidoc Imaging system.
MCF7 cells (3×10^6) were treated for 24 h with the compounds solubilized in DMSO. Compounds were added at 100 nM-10 μM. Standardized protein samples were electrophoresed and imaged as described in the Immunoblotting section above. FIG. 69 depicts the CURE-PRO-mediated BRD4 degradation for the BRD-E9 monomer and VHL ligands 8305 combined in a 1:1 ratio, and FIG. 70 depicts the CURE-PRO-mediated BRD4 degradation for the BRD-E20 monomer and 8305.
MCF7 cells (3×10^6) were treated for 24 h with the compounds solubilized in DMSO. Compounds were added at 1 μM-10 μM. Standardized protein samples were electrophoresed and imaged as described in the Immunoblotting section above. FIG. 71 depicts the CURE-PRO-mediated BRD4 degradation for the BRD-E50 monomer and VHL ligands 8305 and 8304 combined in a 1:1 ratio.

caspase 3/7 [5] = assay: Caspase-Glo 3/7 assay, Namalwa cells; conditions: 24 h
Protocol: as §1
Namalwa cells (5×10^4) were treated for 24 hours with the compounds solubilized in DMSO. FIG. 57 is a bar graph depiction of fold increase of apoptosis assessed via caspase 3/7 activity using the Caspase-Glo assay (Promega) described above.
as §2

[6] = single monomer alone, MCF7, 10 μM

SMILES	loss of viability (MTT) (HCT116 cells)	BRD4 degradation (BRD4 [1]; [6])	Degradation of BRD4, combination with VHL ligand 8305 (BRD4 [2])	caspase 3/7 activation (caspase 3/7 [3]; 1:1 with VHL ligand 8305, Molm-13, 24 h, 10 nM-10 μM)	caspase 3/7 activation (caspase 3/7 [3]; co-treated with VHL298, Molm-13, 24 h)	BRD4 degradation (BRD4 [1]; 1:1 with VHL ligand 8305, MCF7, 10 μM each, 4-24 h)	BRD4 degradation (BRD4 [1]; co-incubated with VHL ligand 8304, MCF7, 10 μM each)	BRD4 degradation after VHL298 pre-incubation (BRD4 [1]; with 8305, 10 μM each, VHL298 preincubated at equimolar concentration, MCF7)	loss of cell viability versus monomers alone (Molm-13 cells; co-dosed 1:1 with VHL ligand 8305, Molm-13, 24 h and 72 h, 10 nM-10 μM)	cell viability (Molm-13 cells; co-treated with VHL298, Molm-13, 24 h and 72 h)	BRD4 degradation (BRD4 [4]; 1:1 with VHL ligand 8304, MCF7, 24 h, 1 μM-10 μM)	BRD4 degradation (BRD4 [4]; 1:1 with VHL ligand 8305, MCF7, 24 h, 100 nM-10 μM)	caspase 3/7 activation (caspase 3/7 [5]; 1:1 with VHL ligand 8305, Namalwa, 10 nM-10 μM)	caspase 3/7 activation (caspase 3/7 [5]; co-treated with VHL298, Namalwa)
Cc1ncsc1-c1ccc(CNC(=O)[C@@H]2C[C@@H](O)CN2C(=O)[C@@H](NC(=O)c2cccc(O)c2O)C(C)(C)C)cc1 [compound 8305, (2S,4R)-1-((S)-2-(2,3-dihydroxybenzamido)-3,3-dimethylbutanoyl)-4-hydroxy-N-(4-(4-methylthiazol-5-yl)benzyl)pyrrolidine-2-carboxamide]	loss of viability only noted at higher concentrations (30 μM); also recorded: Toxicity at higher concentrations	there is no degradation of BRD4												
CCNC(=O)C[C@@H]1N=C(c2ccc(Cl)cc2)c2cc(B(O)O)ccc2-n2c(C)nnc21 [BRD-E50, ((4S)-6-(4-chlorophenyl)-4-(2-(ethylamino)-2-oxoethyl)-1-methyl-4H-benzo[f][1,2,4]triazolo[4,3-a][1,4]diazepin-8-yl)boronic acid]		there is no degradation of BRD4	√ (A black check mark indicates efficacy of 30% to 70% or higher protein degradation)	demonstrates activation of caspase 3/7; also recorded: marked caspase activation	does not increase caspase activity	directs degradation of BRD4 as early as 4 h; also recorded: marked BRD4 degradation after 4 h	No degradation is noted	attenuates CURE-PRO mediated BRD4 degradation; also recorded: No degradation is noted; also recorded: inhibited CURE-PRO mediated degradation; also recorded: inhibits the degradation of BRD4	marked loss in cell viability when compared to monomer treatment alone; also recorded: a greater loss of cell viability	decreases levels of cell viability to similar levels of BRD-E50 treatment alone	but not when VHL ligand 8304 is co-incubated; also recorded: no degradation is noted	there is degradation of BRD4; also recorded: marked BRD4 degradation	demonstrates activation of caspase 3/7; also recorded: marked caspase activation	does not increase caspase activity
